Measured values reported in article PMC6030077, “Dual role of HDAC10 in lysosomal exocytosis and DNA repair promotes neuroblastoma chemoresistance” (Scientific Reports, 2018).

Key:
HDAC6 [1] = experiment: Western blot analysis of tubulin K40 acetylation as a marker for HDAC6 inhibition; assay type: cell-based, human; conditions: 24 h treatment
Method: Western blot analysis was performed as previously described. The following antibodies were used: anti-HDAC6 (sc-11420, Santa Cruz), anti-HDAC10 (H3413, Sigma), anti-acetylated histone H3 (06-911, Merck Millipore), anti-histone H3 (9715, Cell Signaling Technology, Cambridge UK), anti-LAMP-1 (H4A3, DHSB, Iowa City, IA, USA), anti-LAMP-2 (H4B4; Santa Cruz Biotechnology), anti-acetylated tubulin (6–11B-1; Sigma), anti-tubulin (2148, Cell Signaling Technology), anti P-glycoprotein (13978 S, Cell Signaling Technology) and anti-β-actin (clone AC-15; Sigma).

HDAC6 [2] = target: T1, HDAC6 (Homo sapiens, UniProt Q9UBN7); experiment: In-cell target engagement (NanoBRET) assay, NanoLuc-HDAC6; assay type: binding; conditions: HeLa cells stably transfected with NanoLuc-HDAC6, 2 h
T1 sequence (Q9UBN7 1-1215): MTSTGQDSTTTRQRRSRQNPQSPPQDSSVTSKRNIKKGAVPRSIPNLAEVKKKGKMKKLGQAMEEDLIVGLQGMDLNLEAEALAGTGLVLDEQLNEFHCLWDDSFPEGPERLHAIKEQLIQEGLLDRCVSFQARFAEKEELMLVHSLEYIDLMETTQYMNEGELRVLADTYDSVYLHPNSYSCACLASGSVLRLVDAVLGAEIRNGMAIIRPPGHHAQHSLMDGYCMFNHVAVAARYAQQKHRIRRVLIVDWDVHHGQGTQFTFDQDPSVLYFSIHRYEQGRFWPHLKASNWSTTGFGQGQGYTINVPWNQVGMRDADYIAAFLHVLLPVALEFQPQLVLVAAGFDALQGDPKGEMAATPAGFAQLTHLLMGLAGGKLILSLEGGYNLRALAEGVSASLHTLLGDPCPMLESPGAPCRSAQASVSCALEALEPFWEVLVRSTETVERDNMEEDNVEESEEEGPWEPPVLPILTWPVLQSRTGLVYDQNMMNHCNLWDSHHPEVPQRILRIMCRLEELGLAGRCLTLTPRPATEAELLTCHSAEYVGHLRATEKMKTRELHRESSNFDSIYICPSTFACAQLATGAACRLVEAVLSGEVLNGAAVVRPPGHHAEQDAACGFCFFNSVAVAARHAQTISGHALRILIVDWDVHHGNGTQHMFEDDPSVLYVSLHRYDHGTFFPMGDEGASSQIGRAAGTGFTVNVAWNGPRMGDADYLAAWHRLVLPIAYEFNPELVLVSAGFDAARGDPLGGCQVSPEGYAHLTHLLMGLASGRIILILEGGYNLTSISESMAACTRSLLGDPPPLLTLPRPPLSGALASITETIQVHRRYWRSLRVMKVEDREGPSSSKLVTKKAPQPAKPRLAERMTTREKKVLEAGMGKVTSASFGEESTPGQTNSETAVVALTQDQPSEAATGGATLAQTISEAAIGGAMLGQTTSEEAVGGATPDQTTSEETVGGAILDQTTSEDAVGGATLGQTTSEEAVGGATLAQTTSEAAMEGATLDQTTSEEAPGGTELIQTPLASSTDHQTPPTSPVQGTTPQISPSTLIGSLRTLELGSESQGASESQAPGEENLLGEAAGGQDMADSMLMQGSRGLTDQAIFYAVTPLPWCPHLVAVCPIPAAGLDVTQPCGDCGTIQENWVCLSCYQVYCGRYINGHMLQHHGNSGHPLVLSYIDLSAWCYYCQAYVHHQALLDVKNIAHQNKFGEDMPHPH
Method: (§1) HeLa cells, stabily transfected with NanoBRET plasmids NanoLuc®-HDAC6 FL Fusion Vector and NanoLuc®-HDAC10 FL Fusion Vector (Promega, Madison, WI, USA) were seeded at 20.000 cells/well in white 96 well plates. Without further incubation, tracer (0.3 µM) and drugs were added in separate steps and plates were placed in a tissue culture incubator for 2 h. For NanoBRET quantification, plates were put at room temperature for 10 minutes. Nanoglow substrate, diluted in OptiMEM without phenol red, was added and measured within 10 minutes in an OPTIMA plate reader (460 nm emission for donor and 610LP filter for acceptor). The BRET signal was calculated by the ratio of acceptor signal and donor signal.

HDAC10 = target: T2, HDAC10 (Homo sapiens, UniProt Q969S8); experiment: In-cell target engagement (NanoBRET) assay, NanoLuc-HDAC10; assay type: binding
T2 construct: NanoLuc®-HDAC10 FL Fusion Vector; host or cells: HeLa cells, stably transfected
T2 sequence (Q969S8 1-669): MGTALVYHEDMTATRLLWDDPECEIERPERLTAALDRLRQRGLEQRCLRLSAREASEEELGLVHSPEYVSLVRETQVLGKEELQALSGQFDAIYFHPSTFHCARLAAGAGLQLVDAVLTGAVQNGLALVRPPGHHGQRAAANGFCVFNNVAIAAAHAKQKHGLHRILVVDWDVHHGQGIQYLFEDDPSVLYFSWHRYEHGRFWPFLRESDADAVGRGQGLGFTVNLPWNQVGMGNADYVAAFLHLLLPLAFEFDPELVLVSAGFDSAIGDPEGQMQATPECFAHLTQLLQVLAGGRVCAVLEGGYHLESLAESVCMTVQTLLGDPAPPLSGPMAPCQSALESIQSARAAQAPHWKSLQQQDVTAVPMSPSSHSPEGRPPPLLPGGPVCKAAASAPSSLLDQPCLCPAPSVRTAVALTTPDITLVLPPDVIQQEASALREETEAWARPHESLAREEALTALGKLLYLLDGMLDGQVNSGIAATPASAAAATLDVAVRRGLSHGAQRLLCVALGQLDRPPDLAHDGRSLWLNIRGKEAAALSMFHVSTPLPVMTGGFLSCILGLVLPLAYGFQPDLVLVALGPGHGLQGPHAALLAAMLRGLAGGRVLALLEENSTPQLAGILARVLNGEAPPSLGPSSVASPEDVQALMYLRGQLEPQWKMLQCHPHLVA
Excerpt: We next investigated if accumulation of lysosomes was also affected by inhibition of HDAC6 and HDAC10, respectively. […] Since no bona fide downstream target protein of HDAC10 has been described to date, we performed an in-cell target engagement (NanoBRET) assay that measures competitive displacement of a fluorescently-labeled tracer from NanoLuc® Luciferase coupled HDAC10 enzyme. […] To exclude that lysosomal accumulation after treatment with HDAC6/10 inhibitors was caused by off-target inhibition of class I HDACs, we treated BE(2)-C cells with 1 mM class I HDAC inhibitor valproic acid (VPA).
as §1

BE(2)-C cells [3] = experiment: Flow cytometric quantification of intracellular doxorubicin accumulation, BE(2)-C; assay type: cell-based, human; conditions: 100 ng/ml doxorubicin, 24 h co-treatment
Method: For flow cytometric quantification of intracellular doxorubicin after HDAC6/10 inhibition, BE(2)-C, SK-N-AS, IMR-32, HAP1 wild type and HDAC10 knockout cells were seeded in 6-well dishes at a density of 1.5 ∗ 10^5 cells/well (BE(2)-C and SK-N-AS, HAP1) and 3 ∗ 10^5 cells/well (IMR-32). Cells were treated with 25 ng/ml, 50 ng/ml, 100 ng/ml or 1 µg/ml doxorubicin, respectively, for 3–48 h (see respective figure legend). Where indicated, cells were co-treated with HDAC6/10 or lysosomal inhibitors. In case of co-treatment with vacuolin-1, vacuolin-1 was directly added to cells under doxorubicin treatment 1 h or 24 h prior to analysis. Flow cytometric quantification of intracellular doxorubicin after HDAC6, HDAC10 or P-glycoprotein knockdown in BE(2)-C cells was performed 5 days (P-glycoprotein) or 6 days (HDAC6/10) after transfection with siRNA. To that end, cells were seeded 3–4 days after transfection into 6-well dishes at 1.5 ∗ 10^5 cells per well and treated with 100 ng/ml doxorubicin +/− HDAC6/10 and lysosomal inhibitors for the last 24 h. After doxorubicin treatment, BE(2)-C, SK-N-AS, IMR-32 and HAP1 cells were washed with ice-cold RPMI w/o phenol-red and detached using Trypsin/EDTA for 3 minutes at 37 °C. Cells were centrifuged, resuspended in RPMI w/o phenol red and doxorubicin fluorescence was quantified on a BD FACSCanto II platform using the PE filter setting.

BE(2)-C cells [4] = experiment: Flow cytometric analysis of LysoTracker DND-99 staining (lysosomal accumulation); assay type: cell-based, human; conditions: 24 h treatment
Method: Six days after siRNA transfection or 24 h after treatment with HDAC or lysosomal inhibitors, cells were stained for 1 h with 50 nM LysoTracker® Red DND-99 in medium under standard cell culture conditions. Cells were washed with ice-cold RPMI w/o phenol-red and detached using Trypsin/EDTA for 3 minutes at 37 °C. Cells were centrifuged, resuspended in RPMI w/o phenol red and LysoTracker® Red fluorescence was quantified on a BD FACSCanto II platform using the PE filter setting.

IC50 (HDAC6 [2]): 2.21 nM | concentrations at which HDAC10 is inhibited (NanoBRET) (HDAC10): above 150 nM | IC50 (HDAC10; HeLa cells stably transfected with NanoLuc-HDAC10, 2 h): 564 nM | EC50 (BE(2)-C cells [4]; read-out: LysoTracker staining EC50): 6600 nM
SMILES: CN1C(=O)C2CN(Cc3c2c2ccccc2n3Cc2ccc(C(=O)NO)cc2)C1=O (stereo not shown) [Marbostat-100]
concentrations inducing tubulin acetylation (HDAC6 [1]): ≥ 50 nM | concentrations at which intracellular doxorubicin levels are increased (BE(2)-C cells [3]): ≥ 5 µM | concentrations at which LysoTracker staining is increased (BE(2)-C cells [4]): above 1 µM
